From the supplement of paper PMC11061612

Tests used:
[1] = system: A172 (Glioblastoma); assay: Bliss excess, mean over the matrix (fraction); higher = more synergy
Procedure, shortened: (§1)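 After 24 hours at 37°C and 5% CO2 in 1536-well plates, cells in DMEM/F12 or RPMI plus 10% FBS received two-drug dose matrices for 72 hours. Viability came from CellTiter-Glo 2.0 luminescence and was scaled as inhibition, anchored at 0 by vehicle wells and at 1 by blank wells. Combination Emax is taken as the second-highest inhibition in the matrix, and Bliss excess as the observed combination effect less EA + EB − EA·EB, with EA and EB the single-agent effects.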

[2] = system: BICR78 (Oral Cavity Carcinoma); assay: as above
Procedure, shortened: as §1

[3] = system: D-283MED (Other Solid Carcinomas); assay: as above
Procedure, shortened: as §1

[4] = system: HCC-827 (Lung Adenocarcinoma); assay: as above
Procedure, shortened: as §1

[5] = system: Saos-2 (Osteosarcoma); assay: as above
Procedure, shortened: as §1

[6] = system: WSU-DLCL2 (B-Cell Non-Hodgkin's Lymphoma); assay: as above
Procedure, shortened: as §1

[7] = system: CAL-39 (Other Solid Carcinomas); assay: combination Emax (second highest fraction inhibited in the dose matrix, 72 h); higher = more inhibition; extreme values may be limits of the assay
Procedure, shortened: as §1

[8] = system: EKVX (Non-Small Cell Lung Carcinoma); assay: as above
Procedure, shortened: as §1

[9] = system: ETK-1 (Biliary Tract Carcinoma); assay: as above
Procedure, shortened: as §1

[10] = system: HCC38 (Breast Carcinoma); assay: as above
Procedure, shortened: as §1

[11] = system: HOP-92 (Non-Small Cell Lung Carcinoma); assay: as above
Procedure, shortened: as §1

[12] = system: MES-SA (Other Solid Carcinomas); assay: as above
Procedure, shortened: as §1

[13] = system: MSTO-211H (Mesothelioma); assay: as above
Procedure, shortened: as §1

[14] = system: P31-FUJ (Acute Myeloid Leukemia); assay: as above
Procedure, shortened: as §1

[15] = system: RCC10RGB (Kidney Carcinoma); assay: as above
Procedure, shortened: as §1

[16] = system: SKN-3 (Head and Neck Carcinoma); assay: as above
Procedure, shortened: as §1

[17] = system: SLVL (B-Cell Non-Hodgkin's Lymphoma); assay: as above
Procedure, shortened: as §1

[18] = system: SNU-61 (Colorectal Carcinoma); assay: as above
Procedure, shortened: as §1

[19] = system: Saos-2 (Osteosarcoma); assay: as above
Procedure, shortened: as §1

[20] = system: YT (Other Blood Carcinomas); assay: as above
Procedure, shortened: as §1
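For Bliss excess, mean over the matrix in this document: after 72 h of two-drug dosing.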

CC1(C)CCC(CN2CCN(c3ccc(C(=O)NS(=O)(=O)c4ccc(NCC5CCOCC5)c([N+](=O)[O-])c4)c(Oc4cnc5[nH]ccc5c4)c3)CC2)=C(c2ccc(Cl)cc2)C1 [Venetoclax] + CCN(CCO)CCCOc1ccc2c(Nc3cc(CC(=O)Nc4cccc(F)c4)[nH]n3)ncnc2c1 [AZD2811] (first compound max 1 µM, 7x7, partner max 1 µM)
Bliss excess [1]: -0.0296 | Bliss excess [2]: -0.0393 | Bliss excess [3]: 0.0579 | Bliss excess [4]: -0.015 | Bliss excess [5]: 0.0727 | Bliss excess [6]: 0.301 | combination Emax [7]: 0.285 | combination Emax [8]: 0.178 | combination Emax [9]: 0.259 | combination Emax [10]: 0.253 | combination Emax [11]: 0.476 | combination Emax [12]: 0.408 | combination Emax [13]: 0.394 | combination Emax [14]: 0.932 | combination Emax [15]: 0.212 | combination Emax [16]: 0.19 | combination Emax [17]: 0.901 | combination Emax [18]: 0.168 | combination Emax [19]: 0.648 | combination Emax [20]: 0.344
